Measurements published in patent US7553838B2, “Mitotic kinesin inhibitors” (Merck & Co. Inc., priority 2004, dated 2009).
pIC50: −log10 of the molar value.

Biological target: T1, human poly-histidine tagged KSP motor domain (KSP(367H)) (Homo sapiens, UniProt P52732)
T1 construct: were used to amplify the motor domain and the neck linker region; made in house; host or cells: E. coli BL21 (DE3), pRSETa
T1 sequence (P52732 18-359 limits assumed): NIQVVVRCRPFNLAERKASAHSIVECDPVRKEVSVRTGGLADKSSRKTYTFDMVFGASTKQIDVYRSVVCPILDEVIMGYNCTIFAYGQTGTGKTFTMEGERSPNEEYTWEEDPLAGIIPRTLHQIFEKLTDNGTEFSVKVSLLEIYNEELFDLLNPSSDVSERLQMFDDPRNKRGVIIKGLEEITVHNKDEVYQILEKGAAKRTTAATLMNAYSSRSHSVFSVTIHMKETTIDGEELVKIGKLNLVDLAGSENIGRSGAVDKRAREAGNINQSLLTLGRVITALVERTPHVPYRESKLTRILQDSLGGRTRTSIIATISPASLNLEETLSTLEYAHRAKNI
Test: Kinesin ATPase In Vitro Assay
Type: biochemical
Details: microtubules, 1 mM ATP, 23° C.; free phosphate by quinaldine red/ammonium molybdate
Excerpt: I. Kinesin ATPase In Vitro Assay
Cloning and expression of human poly-histidine tagged KSP motor domain (KSP(367H))
Plasmids for the expression of the human KSP motor domain construct were cloned by PCR using a pBluescript full length human KSP construct (Blangy et al., Cell, vol. 83, pp 1159-1169, 1995) as a template. The N-terminal primer 5′-[…] (SEQ.ID.NO.: 1) and the C-terminal primer 5′-[…] […] (SEQ.ID.NO.: 2) were used to amplify the motor domain and the neck linker region. The PCR products were digested with AseI and XhoI, ligated into the NdeI/XhoI digestion product of pRSETa (Invitrogen) and transformed into E. coli BL21 (DE3).
Cells were grown at 37° C. to an OD600 of 0.5. […]
The kinesin motor domain is incubated with microtubules, 1 mM ATP (1:1 MgCl2: Na-ATP), and compound at 23° C. in buffer containing 80 mM K-HEPES (pH 7.0), 1 mM EGTA, 1 mM DTT, 1 mM MgCl2, and 50 mM KCl. […] Free phosphate from the ATP hydrolysis reaction is measured via a quinaldine red/ammonium molybdate assay by adding 150 μl of quench C buffer containing a 2:1 ratio of quench A:quench B. Quench A contains 0.1 mg/ml quinaldine red and 0.14% polyvinyl alcohol; quench B contains 12.3 mM ammonium molybdate tetrahydrate in 1.15 M sulfuric acid. The reaction is incubated for 10 minutes at 23° C., and the absorbance of the phospho-molybdate complex is measured at 540 nm.

pIC50: ≥ 4.30
SMILES: CC(C(=O)N1N=C(c2cc(F)ccc2F)CC1(CO)c1ccccc1)N1CCN(C)CC1 (racemic) [Compound 3-4, {3-(2,5-difluorophenyl)-1-[2-(4-methylpiperazin-1-yl)propanoyl]-5-phenyl-4,5-dihydro-1H-pyrazol-5-yl}methanol]
